# In US20230365592A1 (Agios Pharmaceuticals, Inc., priority 2022, published 2023):
# Target: T1, human PAH with the R408W mutation (Homo sapiens, UniProt P00439, R408W)
# T1 construct: expressed in transfected cells
# T1 sequence (P00439 1-452 R408W): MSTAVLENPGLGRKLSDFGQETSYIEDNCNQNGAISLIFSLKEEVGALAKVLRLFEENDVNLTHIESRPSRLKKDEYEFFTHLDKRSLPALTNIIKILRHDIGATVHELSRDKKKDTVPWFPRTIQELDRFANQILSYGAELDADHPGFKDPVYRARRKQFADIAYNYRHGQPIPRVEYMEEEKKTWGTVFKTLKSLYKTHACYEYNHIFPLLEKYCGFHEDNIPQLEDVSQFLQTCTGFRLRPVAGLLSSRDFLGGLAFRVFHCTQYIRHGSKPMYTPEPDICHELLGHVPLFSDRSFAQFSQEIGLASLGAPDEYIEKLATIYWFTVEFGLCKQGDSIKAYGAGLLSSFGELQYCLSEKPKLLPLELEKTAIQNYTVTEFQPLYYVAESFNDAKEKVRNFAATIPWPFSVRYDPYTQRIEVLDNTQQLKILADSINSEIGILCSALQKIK
# Experiment: Cell Based Phenylalanine Flux Assay;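 also: after compound treatment, cells received sepiapterin plus isotope-labelled Phenylalanine for 4 hours, then labelled Tyrosine in the medium was quantified, 10-point 2-fold dilution series run in duplicate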
# Settings: A375 cells expressing R408W PAH; 24 hrs with compound, then 20 µM sepiapterin and 800 µM 13C9,15N-Phenylalanine for 4 hours; 13C-Tyrosine by LC-MS; average where tested multiple times; read-out: AC50
row,Compound,AC50
1,c1ccn2nc(C3c4nc[nH]c4CCN3c3nnc(-c4ccncn4)o3)cc2c1 (centres unmarked),> 5000 nM
2,Cn1cc(-c2nc(C3CC3)c(C(=O)N3CCc4[nH]cnc4C3c3cc4ccccn4n3)o2)cn1 (centres unmarked),> 5000 nM
3,CN(C)Cc1ccc2c(C(=O)N3CCc4[nH]cnc4C3c3cc4cccc(C(F)F)n4n3)cnn2c1 (centres unmarked),1000 to 5000 nM
4,"Cc1cccn2nc([C@@H]3c4nc[nH]c4CCN3c3nnc(-c4ncccn4)o3)cc12 (single isomer, unassigned)",1000 to 5000 nM

# Same assay, conditions: A375 cells expressing human PAH R408W; 24 hrs compound incubation; 13C-Tyrosine by LC-MS; average where tested multiple times; read-out: AC50
row,Compound,AC50
1,"Cc1nnc(N2CCc3[nH]cnc3[C@H]2c2cc3c(OC(F)(F)F)cccn3n2)o1 [Example 2249, (S)-2-methyl-5-(4-(4-(trifluoromethoxy)pyrazolo[1,5-a]pyridin-2-yl)-1,4,6,7-tetrahydro-5H-imidazo[4,5-c]pyridin-5-yl)-1,3,4-oxadiazole]",< 500 nM
2,"Fc1cccc(F)c1-c1nnc(N2CCc3[nH]cnc3[C@H]2c2cc3c(C(F)F)cccn3n2)o1 [Example 1863, (S)-2-(4-(4-(difluoromethyl)pyrazolo[1,5-a]pyridin-2-yl)-1,4,6,7-tetrahydro-5H-imidazo[4,5-c]pyridin-5-yl)-5-(2,6-difluorophenyl)-1,3,4-oxadiazole]",< 500 nM
3,"c1ccc(N2CCc3[nH]cnc3[C@H]2c2cc3ccccn3n2)nc1 [Example 1814, (S)-4-(pyrazolo[1,5-a]pyridin-2-yl)-5-(pyridin-2-yl)-4,5,6,7-tetrahydro-1H-imidazo[4,5-c]pyridine]",< 500 nM
4,"FC(F)(F)c1cccn2nc([C@@H]3c4nc[nH]c4CCN3c3cnccn3)cc12 [Example 1819, (S)-5-(pyrazin-2-yl)-4-(4-(trifluoromethyl)pyrazolo[1,5-a]pyridin-2-yl)-4,5,6,7-tetrahydro-1H-imidazo[4,5-c]pyridine]",< 500 nM
5,"CC(C)(O)c1nc(C(F)F)c(C(=O)N2CCc3[nH]cnc3[C@H]2c2cc3cc(C(F)(F)F)ccn3n2)o1 [Example 2406, (S)-(4-(difluoromethyl)-2-(2-hydroxypropan-2-yl)oxazol-5-yl)(4-(5-(trifluoromethyl)pyrazolo[1,5-a]pyridin-2-yl)-6,7-dihydro-1H-imidazo[4,5-c]pyridin-5(4H)-yl)methanone]",< 500 nM
6,"Cc1cccnc1-c1nnc(N2CCc3[nH]cnc3[C@H]2c2cc3c(C(F)(F)F)cccn3n2)o1 [Example 2276, (S)-2-(3-methylpyridin-2-yl)-5-(4-(4-(trifluoromethyl)pyrazolo[1,5-a]pyridin-2-yl)-1,4,6,7-tetrahydro-5H-imidazo[4,5-c]pyridin-5-yl)-1,3,4-oxadiazole]",< 500 nM
7,"Cn1nccc1-c1nnc(C(=O)N2CCc3[nH]cnc3[C@H]2c2cc3ccccn3n2)o1 [Example 2004, (S)-(5-(1-methyl-1H-pyrazol-5-yl)-1,3,4-oxadiazol-2-yl)(4-(pyrazolo[1,5-a]pyridin-2-yl)-1,4,6,7-tetrahydro-5H-imidazo[4,5-c]pyridin-5-yl)methanone]",500 to 1000 nM
8,"Cc1nnc(N2CCc3[nH]cnc3[C@H]2c2cc3c(Cl)cccn3n2)o1 [Example 2456, (S)-2-(4-(4-chloropyrazolo[1,5-a]pyridin-2-yl)-6,7-dihydro-1H-imidazo[4,5-c]pyridin-5(4H)-yl)-5-methyl-1,3,4-oxadiazole]",1000 to 5000 nM
9,"Cc1nnc(N2CCc3[nH]cnc3[C@H]2c2cc3c(C(F)F)cccn3n2)o1 [Example 2467, (S)-2-(4-(4-(difluoromethyl)pyrazolo[1,5-a]pyridin-2-yl)-6,7-dihydro-1H-imidazo[4,5-c]pyridin-5(4H)-yl)-5-methyl-1,3,4-oxadiazole]",1000 to 5000 nM
10,"FC(F)(F)c1nnc(N2CCc3[nH]cnc3[C@@H]2c2cc3c(Cl)cccn3n2)o1 [Example 1848, (R)-2-(4-(4-chloropyrazolo[1,5-a]pyridin-2-yl)-6,7-dihydro-1H-imidazo[4,5-c]pyridin-5(4H)-yl)-5-(trifluoromethyl)-1,3,4-oxadiazole]",> 5000 nM
11,"CC(C)c1cccn2nc([C@@H]3c4nc[nH]c4CCN3c3nnc(-c4ncccc4F)o3)cc12 [Example 2355, (S)-2-(3-fluoropyridin-2-yl)-5-(4-(4-isopropylpyrazolo[1,5-a]pyridin-2-yl)-1,4,6,7-tetrahydro-5H-imidazo[4,5-c]pyridin-5-yl)-1,3,4-oxadiazole]",500 to 1000 nM
12,"FC(F)c1cccn2nc([C@@H]3c4nc[nH]c4CCN3c3ccccn3)cc12 [Example 1979, (S)-4-(4-(difluoromethyl)pyrazolo[1,5-a]pyridin-2-yl)-5-(pyridin-2-yl)-4,5,6,7-tetrahydro-1H-imidazo[4,5-c]pyridine]",< 500 nM

# Same assay, conditions: A375 cells expressing human R408W PAH; 24 hrs compound incubation; 13C-Tyrosine by LC-MS; average where tested multiple times; read-out: AC50
row,Compound,AC50
1,"Cc1ncccc1-c1nnc(C(=O)N2CCc3[nH]cnc3[C@H]2c2cc3c(C)cccn3n2)o1 [Example 1330, (S)-(4-(4-methylpyrazolo[1,5-a]pyridin-2-yl)-6,7-dihydro-1H-imidazo[4,5-c]pyridin-5(4H)-yl)(5-(2-methylpyridin-3-yl)-1,3,4-oxadiazol-2-yl)methanone]",< 500 nM
2,"O=C(c1nnc(-c2cnn(C(F)F)c2)o1)N1CCc2[nH]cnc2[C@@H]1c1cc2c(Cl)cccn2n1 [Example 1135, (R)-(4-(4-chloropyrazolo[1,5-a]pyridin-2-yl)-6,7-dihydro-1H-imidazo[4,5-c]pyridin-5(4H)-yl)(5-(1-(difluoromethyl)-1H-pyrazol-4-yl)-1,3,4-oxadiazol-2-yl)methanone]",1000 to 5000 nM
3,"O=C(c1nnc(-c2ccc(F)cn2)o1)N1CCc2[nH]cnc2[C@H]1c1cc2c(F)cccn2n1 [Example 881, (S)-(4-(4-fluoropyrazolo[1,5-a]pyridin-2-yl)-6,7-dihydro-1H-imidazo[4,5-c]pyridin-5(4H)-yl)(5-(5-fluoropyridin-2-yl)-1,3,4-oxadiazol-2-yl)methanone]",< 500 nM
4,"O=C(c1ocnc1C(F)F)N1CCc2[nH]cnc2[C@H]1c1cc2ccc(F)cn2n1 [Example 1068, (S)-(4-(difluoromethyl)oxazol-5-yl)(4-(6-fluoropyrazolo[1,5-a]pyridin-2-yl)-6,7-dihydro-1H-imidazo[4,5-c]pyridin-5(4H)-yl)methanone]",< 500 nM
5,"O=C(c1nnc(C2CC(F)(F)C2)o1)N1CCc2[nH]cnc2[C@@H]1c1cc2c(F)cccn2n1 [Example 1605, (R)-(5-(3,3-difluorocyclobutyl)-1,3,4-oxadiazol-2-yl)(4-(4-fluoropyrazolo[1,5-a]pyridin-2-yl)-6,7-dihydro-1H-imidazo[4,5-c]pyridin-5(4H)-yl)methanone]",> 5000 nM
6,"Cc1ccc2c(C(=O)N3CCc4[nH]cnc4[C@H]3c3cc4c(Cl)cccn4n3)cnn2c1 [Example 1714, (S)-(4-(4-chloropyrazolo[1,5-a]pyridin-2-yl)-6,7-dihydro-1H-imidazo[4,5-c]pyridin-5(4H)-yl)(6-methylpyrazolo[1,5-a]pyridin-3-yl)methanone]",< 500 nM
7,"CC(C)(F)c1nc(C(F)F)c(C(=O)N2CCc3[nH]cnc3[C@@H]2c2cc3c(C(F)(F)F)cccn3n2)o1 [Example 1219, (R)-(4-(difluoromethyl)-2-(2-fluoropropan-2-yl)oxazol-5-yl)(4-(4-(trifluoromethyl)pyrazolo[1,5-a]pyridin-2-yl)-6,7-dihydro-1H-imidazo[4,5-c]pyridin-5(4H)-yl)methanone]",500 to 1000 nM
8,"Cn1cc(-c2nnc(C(=O)N3CCc4[nH]cnc4[C@@H]3c3cc4ccccn4n3)o2)c(C(F)(F)F)n1 [Example 679, (R)-(5-(1-methyl-3-(trifluoromethyl)-1H-pyrazol-4-yl)-1,3,4-oxadiazol-2-yl)(4-(pyrazolo[1,5-a]pyridin-2-yl)-6,7-dihydro-1H-imidazo[4,5-c]pyridin-5(4H)-yl)methanone]",> 5000 nM
9,"FC(F)(F)c1cccn2nc([C@@H]3c4nc[nH]c4CCN3c3ncccn3)cc12 [Example 1692, (S)-5-(pyrimidin-2-yl)-4-(4-(trifluoromethyl)pyrazolo[1,5-a]pyridin-2-yl)-4,5,6,7-tetrahydro-1H-imidazo[4,5-c]pyridine]",< 500 nM
10,"O=C(c1oc(C2(O)CC2)nc1C(F)F)N1CCc2[nH]cnc2[C@H]1c1cc2c(Cl)cccn2n1 [Example 704, (S)-(4-(4-chloropyrazolo[1,5-a]pyridin-2-yl)-6,7-dihydro-1H-imidazo[4,5-c]pyridin-5(4H)-yl)(4-(difluoromethyl)-2-(1-hydroxycyclopropyl)oxazol-5-yl)methanone]",< 500 nM
11,"Cc1nnc(C(=O)N2CCc3[nH]cnc3[C@H]2c2cc3c(Cl)cccn3n2)o1 [Example 1106, (S)-(4-(4-chloropyrazolo[1,5-a]pyridin-2-yl)-6,7-dihydro-1H-imidazo[4,5-c]pyridin-5(4H)-yl)(5-methyl-1,3,4-oxadiazol-2-yl)methanone]",< 500 nM
12,"CC(C)(O)c1nc(C(F)F)c(C(=O)N2CCc3[nH]cnc3[C@H]2c2cc3c(Cl)cccn3n2)o1 [Example 700, (S)-(4-(4-chloropyrazolo[1,5-a]pyridin-2-yl)-6,7-dihydro-1H-imidazo[4,5-c]pyridin-5(4H)-yl)(4-(difluoromethyl)-2-(2-hydroxypropan-2-yl)oxazol-5-yl)methanone]",< 500 nM
13,"O=C(c1nnc(-c2ncccc2F)o1)N1CCc2[nH]cnc2[C@@H]1c1cc2c(Cl)cccn2n1 [Example 1294, (R)-(4-(4-chloropyrazolo[1,5-a]pyridin-2-yl)-6,7-dihydro-1H-imidazo[4,5-c]pyridin-5(4H)-yl)(5-(3-fluoropyridin-2-yl)-1,3,4-oxadiazol-2-yl)methanone]",1000 to 5000 nM
